According to ChEMBL document CHEMBL1148587, “Imidazo[1,2-a]pyrimidines as functionally selective and orally bioavailable GABA(A)alpha2/alpha3 binding site agonists for the treatment of anxiety disorders” (J Med Chem, 2006):

Experiments:
[1] = target: T1, GABA-A receptor; alpha-1/beta-3/gamma-2 (Homo sapiens, UniProt P14867+P18507+P28472); assay: Displacement of [3H]-Ro15-1788 from human recombinant GABAA alpha1 in combination with beta-3-gamma-2 expressed in L(tk-) cells; format: cell-based
T1 sequence (P14867 whole entry): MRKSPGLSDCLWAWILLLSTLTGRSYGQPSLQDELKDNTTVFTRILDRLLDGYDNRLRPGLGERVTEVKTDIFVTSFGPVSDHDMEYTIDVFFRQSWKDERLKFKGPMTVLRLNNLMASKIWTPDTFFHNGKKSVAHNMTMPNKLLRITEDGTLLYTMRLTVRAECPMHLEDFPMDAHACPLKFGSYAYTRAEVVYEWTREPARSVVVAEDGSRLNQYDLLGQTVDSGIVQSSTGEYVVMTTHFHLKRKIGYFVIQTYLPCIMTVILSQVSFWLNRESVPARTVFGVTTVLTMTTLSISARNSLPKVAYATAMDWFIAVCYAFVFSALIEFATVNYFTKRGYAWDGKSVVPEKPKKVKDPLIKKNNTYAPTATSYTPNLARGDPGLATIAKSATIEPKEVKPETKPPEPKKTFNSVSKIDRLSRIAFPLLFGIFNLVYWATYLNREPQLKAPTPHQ
T1 sequence (P18507 whole entry): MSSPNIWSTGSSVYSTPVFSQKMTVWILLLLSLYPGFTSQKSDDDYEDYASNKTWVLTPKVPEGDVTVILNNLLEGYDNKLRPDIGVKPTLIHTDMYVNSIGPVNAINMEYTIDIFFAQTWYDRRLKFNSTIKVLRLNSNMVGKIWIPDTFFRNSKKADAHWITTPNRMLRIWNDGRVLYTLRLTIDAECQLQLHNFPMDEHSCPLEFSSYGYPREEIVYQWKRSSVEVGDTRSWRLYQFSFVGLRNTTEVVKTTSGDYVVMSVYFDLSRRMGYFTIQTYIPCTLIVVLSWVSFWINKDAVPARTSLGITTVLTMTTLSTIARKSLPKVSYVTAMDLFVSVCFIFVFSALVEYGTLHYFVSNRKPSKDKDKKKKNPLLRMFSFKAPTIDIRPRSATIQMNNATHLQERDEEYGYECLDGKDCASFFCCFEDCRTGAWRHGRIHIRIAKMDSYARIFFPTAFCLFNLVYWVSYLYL
T1 sequence (P28472 whole entry): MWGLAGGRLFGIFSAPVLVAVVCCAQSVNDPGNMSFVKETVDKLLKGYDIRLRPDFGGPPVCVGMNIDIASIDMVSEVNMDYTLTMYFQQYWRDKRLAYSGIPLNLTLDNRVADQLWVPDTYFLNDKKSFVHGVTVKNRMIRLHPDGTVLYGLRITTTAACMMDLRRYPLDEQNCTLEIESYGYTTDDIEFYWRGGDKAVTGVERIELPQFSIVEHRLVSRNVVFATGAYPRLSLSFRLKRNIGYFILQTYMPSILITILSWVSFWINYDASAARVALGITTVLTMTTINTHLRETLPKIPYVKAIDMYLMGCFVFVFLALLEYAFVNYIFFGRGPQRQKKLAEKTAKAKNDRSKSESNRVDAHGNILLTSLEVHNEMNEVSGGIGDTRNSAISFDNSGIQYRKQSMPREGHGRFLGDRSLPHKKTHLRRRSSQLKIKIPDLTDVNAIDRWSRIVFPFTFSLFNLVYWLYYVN

[2] = target: T2, GABA-A receptor; alpha-1/beta-3/gamma-2 (Homo sapiens) (UniProt P14867+P18507+P28472); assay: Efficacy against human recombinant GABAA alpha1 in combination with beta3gamma2 expressed in L(tk-) cells by 36Cl ion flux modulation; format: functional, cell-based
[3] = target: T3, GABA-A receptor; alpha-5/beta-3/gamma-2 (Homo sapiens, UniProt P18507+P28472+P31644); assay: Displacement of [3H]Ro-151788 from human recombinant GABAA alpha5 in combination with beta3gamma2 expressed in L(tk-) cells; format: cell-based
T3 sequence (P18507 whole entry): T1 sequence (P18507 whole entry)
T3 sequence (P28472 whole entry): T1 sequence (P28472 whole entry)
T3 sequence (P31644 whole entry): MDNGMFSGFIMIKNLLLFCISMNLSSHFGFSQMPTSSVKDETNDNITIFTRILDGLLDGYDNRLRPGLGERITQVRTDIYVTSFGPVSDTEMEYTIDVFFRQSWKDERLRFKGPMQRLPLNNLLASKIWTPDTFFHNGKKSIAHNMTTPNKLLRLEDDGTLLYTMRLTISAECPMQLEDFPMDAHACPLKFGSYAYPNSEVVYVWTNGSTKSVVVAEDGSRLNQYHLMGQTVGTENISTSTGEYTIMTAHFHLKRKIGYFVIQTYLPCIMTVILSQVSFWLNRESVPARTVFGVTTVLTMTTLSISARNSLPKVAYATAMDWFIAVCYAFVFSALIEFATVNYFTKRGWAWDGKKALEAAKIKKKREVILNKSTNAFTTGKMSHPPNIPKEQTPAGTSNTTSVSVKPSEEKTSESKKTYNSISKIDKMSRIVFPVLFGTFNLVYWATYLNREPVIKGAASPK

[4] = target: T4, GABA-A receptor; alpha-3/beta-3/gamma-2 (Homo sapiens, UniProt P18507+P28472+P34903); assay: Displacement of [3H]Ro-151788 from human recombinant GABAA alpha3 in combination with beta3gamma2 expressed in L(tk-) cells; format: cell-based
T4 sequence (P18507 whole entry): T1 sequence (P18507 whole entry)
T4 sequence (P28472 whole entry): T1 sequence (P28472 whole entry)
T4 sequence (P34903 whole entry): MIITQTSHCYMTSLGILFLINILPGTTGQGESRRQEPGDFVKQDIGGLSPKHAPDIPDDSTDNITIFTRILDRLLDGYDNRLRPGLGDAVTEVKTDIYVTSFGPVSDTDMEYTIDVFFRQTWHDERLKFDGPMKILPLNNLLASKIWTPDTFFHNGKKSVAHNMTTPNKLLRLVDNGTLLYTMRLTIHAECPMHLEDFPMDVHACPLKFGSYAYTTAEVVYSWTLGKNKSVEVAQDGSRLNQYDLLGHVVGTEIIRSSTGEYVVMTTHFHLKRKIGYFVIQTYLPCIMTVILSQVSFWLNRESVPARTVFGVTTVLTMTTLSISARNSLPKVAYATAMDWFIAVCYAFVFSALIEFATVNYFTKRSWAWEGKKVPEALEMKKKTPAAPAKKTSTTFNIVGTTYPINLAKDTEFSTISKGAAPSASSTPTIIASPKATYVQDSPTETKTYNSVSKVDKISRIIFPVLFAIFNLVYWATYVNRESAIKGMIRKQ

[5] = target: T5, GABA-A receptor; alpha-3/beta-3/gamma-2 (Homo sapiens) (UniProt P18507+P28472+P34903); assay: Efficacy against human recombinant GABAA alpha3 in combination with beta-3-gamma-2 expressed in L(tk-) cells by 36Cl ion flux modulation; format: functional, cell-based
[6] = target: T6, GABA-A receptor; alpha-2/beta-3/gamma-2 (Homo sapiens, UniProt P18507+P28472+P47869); assay: Displacement of [3H]-Ro15-1788 from human recombinant GABAA alpha2 in combination with beta3gamma2 expressed in L(tk-) cells; format: cell-based
T6 sequence (P18507 whole entry): T1 sequence (P18507 whole entry)
T6 sequence (P28472 whole entry): T1 sequence (P28472 whole entry)
T6 sequence (P47869 whole entry): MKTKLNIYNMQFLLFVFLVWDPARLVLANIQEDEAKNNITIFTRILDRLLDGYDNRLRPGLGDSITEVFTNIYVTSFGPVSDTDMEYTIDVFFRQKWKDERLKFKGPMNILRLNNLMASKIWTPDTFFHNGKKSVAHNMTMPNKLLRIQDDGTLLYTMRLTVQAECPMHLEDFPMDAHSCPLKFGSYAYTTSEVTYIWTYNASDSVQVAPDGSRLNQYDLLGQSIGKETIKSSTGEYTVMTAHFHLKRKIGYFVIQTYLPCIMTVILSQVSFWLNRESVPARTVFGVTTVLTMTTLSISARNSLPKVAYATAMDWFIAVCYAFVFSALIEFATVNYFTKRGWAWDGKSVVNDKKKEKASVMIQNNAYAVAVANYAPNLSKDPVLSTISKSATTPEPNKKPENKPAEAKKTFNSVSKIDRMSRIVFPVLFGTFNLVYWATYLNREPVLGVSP

[7] = target: T2, GABA-A receptor; alpha-1/beta-3/gamma-2 (Homo sapiens); assay: Efficacy against human recombinant GABAA alpha-1 in combination with beta3gamma2 expressed in L(tk-) cells by whole cell patch clamp method; format: functional, cell-based
[8] = target: GABA-A receptor; alpha-5/beta-3/gamma-2 (Homo sapiens) (UniProt P18507+P28472+P31644); assay: Efficacy against human recombinant GABAA alpha5 in combination with beta3gamma2 expressed in L(tk-) cells by whole cell patch clamp method; format: functional, cell-based
[9] = target: T5, GABA-A receptor; alpha-3/beta-3/gamma-2 (Homo sapiens); assay: Efficacy against human recombinant GABAA alpha3 in combination with beta-3-gamma-2 expressed in L(tk-) cells by whole cell patch clamp method; format: functional, cell-based
[10] = Oral bioavailability in rat; format: ADME, organism-based; conditions: in vivo
[11] = Plasma clearance in rat; format: ADME, organism-based
[12] = Plasma clearance in dog; format: ADME, organism-based, Canis lupus familiaris
[13] = Oral bioavailability in dog; format: ADME, organism-based, Canis lupus familiaris; conditions: in vivo

Structure (SMILES) | Ki [1] | Efficacy [2] | Ki [3] | Ki [4] | Efficacy [5] | Ki [6] | Efficacy [7] | Efficacy [8] | Efficacy [9] | bioavailability [10] | clearance [11] | clearance [12] | bioavailability [13]
CC(C)(O)c1ccn2c(-c3ccc(F)c(-c4ccc(F)cc4C#N)c3)cnc2n1 | 2700 pM | 45% | 100 pM | 1300 pM | 45% | 3300 pM | – | – | – | – | – | – | –
CCn1ncnc1COc1nn2c(-c3ccccc3F)nnc2cc1C(C)(C)C [MK-0777] | 260 pM | – | 200 pM | 300 pM | – | 300 pM | – | – | – | – | – | – | –
Cc1ccn2c(-c3cccc(-c4cccnc4)c3)cnc2c1 | – | -15% | – | 16000 pM | 9% | – | – | – | – | – | – | – | –
CCO/N=C(\C)c1ccc2c(c1)ncn2-c1cccc(-c2cccnc2)c1 | 1500 pM | – | 1600 pM | 9200 pM | – | 13100 pM | 42% | 26% | 127% | – | – | – | –
Cc1ccn2c(-c3cccc(-c4ccccc4C#N)c3)cnc2c1 | 4500 pM | – | 1200 pM | 3600 pM | – | – | -10% | -14.6% | 57% | 2% | 44 mL/min/kg | – | –
c1ccc(-c2nnc3c4c(c(OCc5ccccn5)nn23)C2CCC4CC2)cc1 | 56000 pM | – | 1000 pM | 10000 pM | – | 21700 pM | 32% | – | 45.6% | – | – | – | –
N#Cc1ccccc1-c1cccc(-c2cnc3nc(C(F)(F)F)ccn23)c1 | 660 pM | – | 210 pM | 330 pM | – | – | 20% | – | 69% | – | – | – | –
N#Cc1c(F)cccc1-c1cc(-c2cnc3nc(C(F)(F)F)ccn23)ccc1F | 4600 pM | 31% | 2800 pM | 7600 pM | 56% | – | – | – | – | – | – | – | –
Cn1ncnc1COc1nn2c(-c3cc(F)ccc3F)nnc2cc1C(C)(C)C | 800 pM | – | 2300 pM | 700 pM | – | 700 pM | 2% | 39% | 43% | – | – | – | –
N#Cc1ccccc1-c1cc(-c2cnc3nc(C(F)(F)F)ccn23)ccc1F | 500 pM | – | 200 pM | 340 pM | – | 520 pM | 12.4% | 14% | 43% | – | – | – | –
Cc1ccn2c(-c3cccc(-c4ccccc4C#N)c3)cnc2n1 | 390 pM | – | 120 pM | 370 pM | – | 780 pM | 7% | 1% | 81% | 42% | 13 mL/min/kg | 41 mL/min/kg | < 5%
N#Cc1ccc(F)cc1-c1cc(-c2cnc3nc(C(F)(F)F)ccn23)ccc1F | 650 pM | – | 260 pM | 620 pM | – | – | 34% | – | – | – | – | – | –
N#Cc1ccccc1-c1cccc(-c2cnc3nc(C(F)(F)F)ccn23)c1F | 2700 pM | – | 940 pM | 2600 pM | – | – | 2% | 18% | 43% | – | – | – | –
N#Cc1ccccc1-c1cc(F)cc(-c2cnc3nc(C(F)(F)F)ccn23)c1 | 5300 pM | 4% | 1600 pM | 14000 pM | 18% | – | – | – | – | – | – | – | –
N#Cc1cccc(F)c1-c1cc(-c2cnc3nc(C(F)(F)F)ccn23)ccc1F | 870 pM | – | 500 pM | 380 pM | – | – | 8% | – | 33% | – | – | – | –
Cn1cnc(COc2nn3c(-c4ccccc4)nnc3c3c2C2CCC3CC2)n1 | – | – | – | – | – | – | 34% | – | 55% | – | – | – | –
